Measurements as given in EP0087858A1, “New chromanone compounds and pharmaceutical compositions containing them” (priority 1982, dated 1983).

Assays:
Acute toxicity = settings: mouse, in vivo, male dd mice, deaths up to 72 hours
Method: Groups of 10 male dd mice weighing some 18 g were orally or intraperitoneally administered the examined drugs and the number of death up to 72 hours later was recorded.
An example of results is shown in Table 1: the drugs are those numbered correspondingly above. Administration is oral (p.o.) or intraperitoneal (i.p.)

dd mice = test: Analgesic effects by a modified Haffner method; format: in vivo; settings: 2 mg/kg morphine hydrochloride s.c. 30 minutes later, tail squeeze
Method: Groups of 10 dd mice were orally administered the examined drugs and 30 minutes later 2 mg/kg of morphine hydrochloride, the threshold dose, was injected subcutaneously. At 15, 30, 45 and 60 minutes thereafter, the root of mouse's tail was squeezed with a Kocher's forceps.

male dd mice = test: Analgesic effects by acetic acid writhing test; format: in vivo; settings: inhibition rate of stretching after 0.6% acetic acid i.p.
Method: 30 minutes after the examined drugs were given orally, 0.1 ml/10 g of 0.6% acetic acid solution was intraperitoneally administered to groups of 10 male dd mice weighing some 18 g. The number of stretching was calculated during an observation period of 15 to 20 minutes after acetic acid treatment. The average inhibition rate of stretching among 8 animals was regarded as the inhibition rate of the drug, excluding 2 animals showing maximum and minimum number of stretching.

[1] = tested on: plantaroedema induced by carrageenin; test: Inhibition of plantaroedema induced by carrageenin; format: in vivo; settings: rats, 60 minutes before 0.1 ml of 1% carrageenin into the sole
Method: 60 minutes after the drugs had been orally administered to groups of rats, 0.1 ml of 1% carrageenin solution was injected subcutaneously into the sole. The rate of increase in volume of the hind food compared with volume before carrageenin treatment was regarded as oedema rate.

[2] = tested on: gastric irritation/ulceration; test: Gastric irritation; format: in vivo; settings: rats, 8 hours after dosing, aspirin (150 mg/kg) or indomethacin (40 mg/kg) taken as 100%
Method: 8 hours after the examined drugs were orally administered to groups of rats, degree of gastric irritation/ulceration produced by the drug is compared with that produced by aspirin (150 mg/kg) or indomethacin (40 mg/kg). Percentage rate of production of gastric irritation, compared with the control drug, (that produced by aspirin or indomethacin was taken as 100%), was regarded as the gastric irritation rate.

[3] = tested on: stomach and intestinal tracts; set-up: species or system rats; settings: rat, in vivo, po

SMILES | analgesic effect (%) (dd mice; 50 mg/kg orally) | analgesic effect (%) (dd mice; 100 mg/kg orally) | analgesic effect (%) (male dd mice; 50 mg/kg orally) | analgesic effect (%) (male dd mice; 100 mg/kg orally) | oedema rate (%) ([1]; 100 mg/kg orally) | mortality at 72 h (Acute toxicity; po, 400 mg/kg p.o.) | oedema rate (%) ([1]; 50 mg/kg orally) | further results
Cc1c(N(C)C)c(=O)n(-c2ccccc2)n1C [Aminopyrine, reference compound] | 20% | 35% | 17% | 57% |  |  |  | mortality at 72 h (Acute toxicity; po, 600 mg/kg p.o.): 20%
O=C(O)Cc1ccc2c(c1)C(=O)CCO2 [Compound 1, (4-chromanon-6-yl) acetic acid] | 15% | 30% | 31% | 45% |  |  |  | 
CC1(C)CC(=O)c2cc(CC(=O)O)ccc2O1 [Compound 2, (2,2-dimethyl-4-chromanon-6-yl) acetic acid] |  |  | 13% | 62% | 46% |  |  | mortality at 72 h (Acute toxicity; po, 600 mg/kg p.o.): 0%
CC(C(=O)O)c1cc(Cl)c2c(c1)C(=O)CC(C)(C)O2 (stereo not drawn) [Compound 3, 2-(8-chloro-2,2-dimethyl-4-chromanon-6-yl)propionic acid] | 20% | 25% | 27% | 59% | 48% | 0% |  | 
CC(C(=O)O)c1ccc2c(c1)C(=O)CC(C)(C)O2 (stereo not drawn) [Compound 4, 2-(2,2-dimethyl-4-chromanon-6-yl)propionic acid] |  |  |  |  |  |  | 48% | mortality at 72 h (Acute toxicity; ip, 200 mg/kg i.p.): 0%; mortality at 72 h (Acute toxicity; po, 300 mg/kg p.o.): 0%; gastric irritation rate(%) ([2]; 50 mg/kg orally): 8%
CC(C(=O)O)c1cc(Cl)c2c(c1)C(=O)CCO2 (stereo not drawn) [Compound 5, 2-(8-chloro-4-chromanon-6-yl)propionic acid] | 20% | 45% |  |  |  | 0% |  | mortality at 72 h (Acute toxicity; po, 800 mg/kg p.o.): 0%
CC(C(=O)O)c1ccc2c(c1)C(=O)C(C)(C)O2 (stereo not drawn) [Compound 6, 2-(2,2-dimethyl-2,3-dihydrobenzofuran-3-one-5-yl)propionic acid] | 20% | 40% |  |  | 53% |  | 34% | mortality at 72 h (Acute toxicity; ip, 200 mg/kg i.p.): 0%; mortality at 72 h (Acute toxicity; po, 300 mg/kg p.o.): 0%; gastric irritation rate(%) ([2]; 100 mg/kg orally): 25%
CC(C)Cc1ccc(C(C)C(=O)O)cc1 (stereo not drawn) [Ibuprofen, reference compound] |  |  |  |  | 54% |  |  | 
CCCCC1C(=O)N(c2ccccc2)N(c2ccccc2)C1=O [Phenylbutazone, reference compound] |  |  |  |  | 50% | 30% | 33% | findings in sections of the stomach and intestinal tracts [3]: mucosal disorder or ulcer formation
